Measurements from paper PMC10574094, “Discovery of a SHP2 Degrader with In Vivo Anti-Tumor Activity” (Molecules, 2023).
“And” between values parts separate entries of the source, which are not always exact repeats. Equal values may be shown once. “Also recorded” adds a separate entry of the source.

Legend:
[1] = tested on: SHP1, PTP1B, TC-PTP, LYP, PRL1, PRL2; assay: Western blot of other PTPs in HEK293 cells (degrader selectivity); type: cell-based, human; conditions: 1 μM P9, 16 h
Procedure: (§1) HEK293, SKBR3, U2OS, MCF7 and A549 cells were grown in DMEM supplemented with 10% FBS, penicillin (50 units/mL), and streptomycin (50 μg/mL) in a 37 °C incubator containing 5% CO2. KYSE-520 and H358 cells were grown in RPMI-1640 supplemented with 10% FBS, penicillin (50 units/mL), and streptomycin (50 μg/mL) in a 37 °C incubator containing 5% CO2. For western-blot analysis, protein samples were separated by SDS-PAGE, transferred to nitrocellulose membranes, and incubated overnight at 4 °C with corresponding primary antibodies diluted in 5% BSA in phosphate-buffered saline Tween (PBST). SuperSignal™ West Pico PLUS (PI34580; Thermo Scientific) was used to visualize the antibodies in the bioanalytical imaging system (Azure Biosystems c500). Anti-p-ERK1/2 (T202/Y204) (4370), and anti-ERK1/2 (4696) were purchased from Cell Signaling Technology. Anti-GAPDH (sc-365062), anti-SHP2 (sc-7384), anti-SHP1 (sc-7289), and anti-Actin (sc-8432) antibodies were purchased from Santa Cruz. Anti-PTP1B (ab244207) antibody was purchased from Abcam. For colony formation assay, a total of approximately 200–500 cells were seeded to each well in a 12-well plate. The wells were then treated with DMSO, compound P9 and 3 at 37 °C for 3 weeks, gently washed, and stained with crystal violet.

pERK1/2 [2] = assay: pERK1/2 inhibition by Western blotting in KYSE-520 cells; type: cell-based; conditions: Homo sapiens, 16 h
Procedure: as §1

PTP1B and SHP1 = assay: Western blot of PTP1B and SHP1 in KYSE-520 cells; type: cell-based; conditions: 16 h
Procedure: as §1

[3] = Pharmacokinetics in mice, single IP injection; type: in vivo; conditions: for Plasma concentration / concentration at 0.5 h / concentration at 1 h / concentration at 2 h / concentration at 3 h / concentration at 6 h: individual animals; for concentration at 0.5 h / concentration at 1 h / concentration at 2 h / concentration at 3 h / concentration at 6 h / Cmax / half-life / AUC / Tmax: plasma; for concentration at 0.5 h / concentration at 1 h / concentration at 2 h / concentration at 3 h / concentration at 6 h: intraperitoneal; for Cmax / half-life / AUC / Tmax / t1/2: mice
Procedure: (§2) Experiments on mice were carried out in accordance with the regulations of the Institutional Animal Care and Use Committees at Purdue University. All mice were housed under pathogen-free conditions in the animal facility and received autoclaved water and food. Eight to ten weeks-old Nude mice were used in the study.
For pharmacokinetic studies, mice were administered a single dose of P9 at 25 or 50 mg/kg via IP injection. Blood samples were collected through the tail vein at indicated time points after injection. Isoflurane was used as an anesthetic. All blood samples were centrifuged at 1500 g for 5 min, and plasma was separated and stored at –80 °C until analysis by a validated method based on reversed-phase liquid chromatography coupled to mass-spectrometric detection (LC/MS) using a previously published procedure.

KYSE-520 xenograft = KYSE-520 xenograft tumor growth; type: in vivo, mice; conditions: 18 days
Procedure: as §2
(§3) For the xenograft tumor study, KYSE-520 cells were suspended in PBS and a total of 3 × 10^6 cells (100 μL) were subcutaneously implanted into both the left and right flank using a 27-gauge needle. Tumor volume was calculated using the formula V = (W^2 × L)/2 for caliper measurements. Once the tumor volume reaches 200 mm^3, daily intraperitoneal injection of either control, 25 mg/kg or 50 mg/kg of compound P9 was performed. Mice were sacrificed after injection for 18 days, and tumors were collected for biochemical analysis.

[4] = Tolerability and body weight in xenograft study; type: in vivo; conditions: mice, 25 mg/kg or 50 mg/kg daily IP
Procedure: as §2, §3

pERK1/2 [5] = assay: pERK1/2 level in KYSE-520 tumor homogenates (Western blot); type: in vivo, mice; conditions: whole tumor homogenates, 50 mg/kg P9 IP
Procedure: as §1, with “For colony formation assay, a total of approximately 200–500 cells were seeded to each well in a 12-well plate. The wells were then treated with DMSO, compound P9 and 3 at 37 °C for 3 weeks, gently washed, and stained with crystal violet.” left out
(§4) For the xenograft tumor study, KYSE-520 cells were suspended in PBS and a total of 3 × 10^6 cells (100 μL) were subcutaneously implanted into both the left and right flank using a 27-gauge needle. Tumor volume was calculated using the formula V = (W^2 × L)/2 for caliper measurements. […]

SHP2 = target: T1, SHP2 (Homo sapiens, UniProt Q06124); assay: SHP2 level in KYSE-520 tumor homogenates (Western blot); type: in vivo, mice; parameters: from tissue; host or cells: KYSE-520 xenograft tumour from nude mice, whole tumour homogenate; conditions: whole tumor homogenates, 50 mg/kg P9 IP
T1 sequence (Q06124 1-593): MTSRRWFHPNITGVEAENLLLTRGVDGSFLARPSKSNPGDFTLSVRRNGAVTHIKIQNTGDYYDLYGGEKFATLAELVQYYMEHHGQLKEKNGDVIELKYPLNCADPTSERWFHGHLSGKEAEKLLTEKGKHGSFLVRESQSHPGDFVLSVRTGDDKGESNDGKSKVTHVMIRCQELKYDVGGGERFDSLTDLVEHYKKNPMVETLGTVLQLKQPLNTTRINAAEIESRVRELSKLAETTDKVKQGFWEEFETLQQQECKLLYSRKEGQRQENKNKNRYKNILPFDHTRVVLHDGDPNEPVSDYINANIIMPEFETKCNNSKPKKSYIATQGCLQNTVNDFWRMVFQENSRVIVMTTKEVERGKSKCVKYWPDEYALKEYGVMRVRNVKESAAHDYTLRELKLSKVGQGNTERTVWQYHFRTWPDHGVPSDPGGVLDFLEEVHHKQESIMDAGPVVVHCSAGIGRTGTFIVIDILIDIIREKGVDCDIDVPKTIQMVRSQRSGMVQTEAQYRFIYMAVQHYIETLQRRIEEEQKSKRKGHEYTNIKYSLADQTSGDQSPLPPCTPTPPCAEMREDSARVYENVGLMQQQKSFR
Procedure: as §1, with “For colony formation assay, a total of approximately 200–500 cells were seeded to each well in a 12-well plate. The wells were then treated with DMSO, compound P9 and 3 at 37 °C for 3 weeks, gently washed, and stained with crystal violet.” left out
as §4

[6] = Nude, mouse, ip, 25 mg/kg, single IP 25 mg/kg
[7] = Nude, mouse, ip, 50 mg/kg, single IP 50 mg/kg
[8] = Nude, mouse, single IP 25 mg/kg
[9] = Nude, mouse, single IP 50 mg/kg

Cc1ncsc1-c1ccc([C@H](C)NC(=O)[C@@H]2C[C@@H](O)CN2C(=O)[C@@H](NC(=O)CCCCCCCCCN2CCN(C(=O)CCCCCC3(CN)CCN(c4cnc(Sc5cccc(Cl)c5Cl)c(N)n4)CC3)CC2)C(C)(C)C)cc1 [P9, (2S,4R)-1-((S)-2-(10-(4-(6-(1-(6-amino-5-((2,3-dichlorophenyl)thio)pyrazin-2-yl)-4-(aminomethyl)piperidin-4-yl)hexanoyl)piperazin-1-yl)decanamido)-3,3-dimethylbutanoyl)-4-hydroxy-N-((S)-1-(4-(4-methylthiazol-5-yl)phenyl)ethyl)pyrrolidine-2-carboxamide]
protein level of other PTPs [1]: none of the other PTPs including SHP1, PTP1B, TC-PTP, LYP, PRL1, and PRL2, were affected
EC50 (pERK1/2 [2]): ~0.24 µM
protein levels of PTP1B and SHP1 (PTP1B and SHP1): not affected
Plasma concentration ([3]; 25 mg/kg IP, 0.5 h): 0.52 µM and 0.75 µM
Plasma concentration ([3]; 25 mg/kg IP, 1 h): 1.2 µM and 1.32 µM
Plasma concentration ([3]; 25 mg/kg IP, 2 h): 1.09 µM and 0.93 µM
Plasma concentration ([3]; 25 mg/kg IP, 3 h): 0.62 µM and 0.59 µM
Plasma concentration ([3]; 25 mg/kg IP, 6 h): 0.41 µM and 0.39 µM
Plasma concentration ([3]; 25 mg/kg IP, 24 h): 0.13 µM and 0.18 µM and 0.06 µM
Plasma concentration ([3]; 50 mg/kg IP, 0.5 h): 1.82 µM and 1.96 µM
Plasma concentration ([3]; 50 mg/kg IP, 1 h): 2.7 µM and 2.55 µM
Plasma concentration ([3]; 50 mg/kg IP, 2 h): 1.76 µM and 1.7 µM
Plasma concentration ([3]; 50 mg/kg IP, 3 h): 1.22 µM and 1.15 µM
Plasma concentration ([3]; 50 mg/kg IP, 6 h): 0.7 µM and 0.68 µM
Plasma concentration ([3]; 50 mg/kg IP, 24 h): 0.16 µM and 0.24 µM and 0.1 µM
concentration at 0.5 h ([3]; Nude, mouse, 25 mg/kg, 25 mg/kg IP, 0.5 h): 0.56 µM
concentration at 1 h ([3]; Nude, mouse, 25 mg/kg, 25 mg/kg IP, 1 h): 1.02 µM
concentration at 2 h ([3]; Nude, mouse, 25 mg/kg, 25 mg/kg IP, 2 h): 0.92 µM
concentration at 3 h ([3]; Nude, mouse, 25 mg/kg, 25 mg/kg IP, 3 h): 0.55 µM
concentration at 6 h ([3]; Nude, mouse, 25 mg/kg, 25 mg/kg IP, 6 h): 0.36 µM
concentration at 0.5 h ([3]; Nude, mouse, 50 mg/kg, 50 mg/kg IP, 0.5 h): 1.76 µM
concentration at 1 h ([3]; Nude, mouse, 50 mg/kg, 50 mg/kg IP, 1 h): 2.51 µM
concentration at 2 h ([3]; Nude, mouse, 50 mg/kg, 50 mg/kg IP, 2 h): 1.66 µM
concentration at 3 h ([3]; Nude, mouse, 50 mg/kg, 50 mg/kg IP, 3 h): 1.03 µM
concentration at 6 h ([3]; Nude, mouse, 50 mg/kg, 50 mg/kg IP, 6 h): 0.55 µM
Cmax [3, 6]: 1.18 ± 0.13 µM
half-life [3, 6]: 3.71 ± 0.72 h
Cmax [3, 7]: 2.51 ± 0.19 µM
half-life [3, 7]: 3.01 ± 0.48 h
AUC [3, 8]: 8.51 ± 0.6 µM·h
Tmax [3, 8]: 2 h
AUC [3, 9]: 15.1 ± 0.99 µM·h
Tmax [3, 9]: 2 h
Cmax ([3]; single IP 25 mg/kg, 25 mg/kg): 1.2 ± 0.1 µM
t1/2 ([3]; single IP 25 mg/kg, 25 mg/kg): 3.7 ± 0.7 h
Cmax ([3]; single IP 50 mg/kg, 50 mg/kg): 2.5 ± 0.2 µM
t1/2 ([3]; single IP 50 mg/kg, 50 mg/kg): 3.0 ± 0.5 h
effect on tumor burden (KYSE-520 xenograft; 25 mg/kg daily IP): decrease in tumor burden
effect on tumor burden (KYSE-520 xenograft; 50 mg/kg daily IP): nearly complete tumor regression
tolerability [4]: well tolerated
animal body weight ([4]; during treatment): preserved; also recorded: no significant effect on mice body weight
pERK1/2 level, % of the control group (pERK1/2 [5]): 24 ± 12%
SHP2 level, % of the control group (SHP2): 34 ± 18%
